Measured values from US7601494B2, “Method of screening candidate compounds for susceptibility to biliary excretion” (The University of North Carolina at Chapel Hill, priority 1999, dated 2009).

Experiments:
[1] = tested on: sandwich-cultured hepatocytes; experiment: HPLC analysis of 10-min cell lysate of 96-hr sandwich-cultured hepatocytes; assay type: in vitro ADME, rat; details: 96-hr hepatocytes incubated with 3 μM [14C]264W94, 10 min
Description: Aliquots of cell lysate or bile samples containing 264W94 or 2169W94 were mixed with 2-fold volumes of ice-chilled acetonitrile, and centrifuged to remove precipitated proteins. The supernatant was evaporated under nitrogen at room temperature, and reconstituted in 100 μL of a 70/30 mixture of 50 mM ammonium acetate/acetonitrile/trifluoroacetic acid (95:5:0.1 v:v:v) and acetonitrile. The sample extracts were injected onto a WATERS™ […]™ C18 column (3.9×150 mm) and eluted by a 85/15 mixture of 50 mM ammonium acetate (pH 4.0) and acetonitrile; the percentage of acetonitrile was increased by a WATERS™ 600E System Controller to 55% over a period of 20 minutes, and then to 100% during the next 10 minutes.
Radiocarbon that eluted from the HPLC was quantified with an on-line radioactivity detector (RADIOMATIC FLO-ONE/BETA™ Radio-Chromatography Detector Series 500 TR Series, Packard Instrument Co.). The peaks of 264W94, 2169W94, and 2169W94 glucuronide were identified by comparing with purified standard compound. Under these conditions, baseline separation of these three components was achieved. The concentration of the three components was determined by normalizing the eluted radioactivity in each peak to the total injected radioactivity. […]

[2] = tested on: sandwich-cultured hepatocytes; experiment: Cumulative uptake, Biliary Excretion Index and in vitro biliary clearance in 96-hr sandwich-cultured hepatocytes; assay type: in vitro ADME, rat
Description: To prepare sandwich-cultured hepatocytes, neutralized collagen solution (0.1 ml, about 1.5 to about 3.0 mg/ml, pH 7.4) was added to the monolayers 24 hr after the cells were seeded. […] Medium was changed on a daily basis until the fourth day after the cells were seeded. These hepatocytes were referred to as 96-hr or long-term cultured hepatocytes.
(§1) Hepatocytes cultured in a collagen-sandwich configuration were incubated in 3 ml standard buffer or Ca^2+-free buffer at 37° C. for 10 min. After removing the incubation buffer, uptake was initiated by addition of 3 ml standard buffer containing substrate to each dish. After incubation for designated times, cumulative uptake was terminated by aspirating the incubation solution and rinsing 4 times with 3 ml ice-cold standard buffer to remove extracellular substrate. After washing, 2 ml of 1% Triton X-100 solution was added to culture dishes, and the cells were lysed by shaking the dish on a shaker for 20 min at room temperature. An aliquot (1 ml) of lysate was analyzed by liquid scintillation spectrometry. Bio-Rad DC Protein Assay Kit (Bio-Rad Laboratories, Hercules, Calif.) was used to determine the protein concentration in the culture extracts using bovine serum albumin as standard. […] All values for substrate uptake into cell monolayers were corrected for nonspecific binding to the collagen by subtracting the substrate uptake determined in the appropriate control dishes in the absence of cells as described previously.
(§2) Uptake data were normalized to the protein content and expressed as mean±SD from 3-4 separate preparations of hepatocytes. Statistical differences between mean values for the 10-min cumulative substrate uptake in the presence and absence of Ca^2+ were determined by the use of the well-known Student's t-test. A P value of <0.05 was considered significant.
Biliary excretion of substrates in the monolayers was quantitatively assessed by the Biliary Excretion Index based on Equation 3:
[formula] where Uptakestandard and Uptake Ca^2+-free represent the cumulative uptake of substrate over a 10-min interval in the hepatocyte monolayers pre-incubated in standard buffer and in Ca^2+-free buffer, respectively.
Biliary clearance in the sandwich-cultured hepatocytes, ClB(culture) (ml/min/kg per body weight), was calculated according to Equation 4:
[formula] where Timeincubation was 10 min and Concentrationmedium represented the initial substrate concentration in the incubation medium. In some embodiments, a biliary clearance value can be calculated as the ratio of the mass in the bile canaliculi and the area under the curve (AUC) in culture medium, wherein the AUC represents the integral of candidate compound (e.g. xenobiotic concentration) in the medium from time 0 to time T (time can be measure in any desired units, and is usually measured in minutes). Indeed, the term AUC can refer to the following equation: […]

[3] = Biliary excretion in bile duct cannulated rats after administration of [14C]264W94 / [14C]2169W94; assay type: in vivo, rat
Description: Male Wistar rats (250-280 g) from Charles River Laboratory (Raleigh, N.C.) were used as liver donors. Rats were housed individually in stainless-steel cages in a constant alternating 12-hr light and dark cycle at least 1 week before the study was performed, and were fed ad libitum until use. Bile duct cannulated rats (200-250 g) were obtained from Charles River (Raleigh, N.C.). The Institutional Animal Care and Use Committee at the University of North Carolina at Chapel Hill, Chapel Hill, N.C., approved all procedures.
[^14C]264W94 was formulated as a solution in a mixture of sterile water/polypropylene glycol 400/ethanol (2:1:1 v/v/v) at a concentration of 0.125 mg/mL. Following collection of pre-dose bile, [^14C]264W94 solution was administrated by caudal vein injection (0.1 mg/kg). For the 2169W94 studies, [^14C]2169W94 was prepared as a suspension at a concentration of 0.1 mg/mL in 0.5% (w/v) methylcellulose in water. Following collection of pre-dose bile, [^14C]2169W94 suspension was administrated by gavage (1.0 mg/kg). All rats were placed into individual plastic metabolism cages that allowed the rats unrestrained movement. Bile was collected into polypropylene containers surrounded by ice. For the 264W94 studies, the bile container was changed at 8 and 24 hours after the dose. […] Bile samples were stored at −20° C. until analysis.
Aliquots of cell lysate or bile samples containing 264W94 or 2169W94 were mixed with 2-fold volumes of ice-chilled acetonitrile, and centrifuged to remove precipitated proteins. The supernatant was evaporated under nitrogen at room temperature, and reconstituted in 100 μL of a 70/30 mixture of 50 mM ammonium acetate/acetonitrile/trifluoroacetic acid (95:5:0.1 v:v:v) and acetonitrile. […]
Radiocarbon that eluted from the HPLC was quantified with an on-line radioactivity detector (RADIOMATIC FLO-ONE/BETA™ Radio-Chromatography Detector Series 500 TR Series, Packard Instrument Co.). […] The concentration of the three components was determined by normalizing the eluted radioactivity in each peak to the total injected radioactivity.

[4] = tested on: short-term cultured hepatocytes; experiment: Cumulative uptake in 3-hr (short-term) cultured hepatocyte monolayers, standard vs Ca2+-free buffer; assay type: in vitro ADME, rat; details: 3-hr cultured hepatocytes
Description: Hepatocytes were isolated with a two-step perfusion method. Briefly, rats were anesthetized with ketamine and xylazine (60 and 12mg/kg i.p., respectively) prior to portal vein cannulation. The liver was perfused in situ with oxygenated Ca^2+-free Krebs-Henseleit bicarbonate buffer containing collagenase type 1 (0.5 mg/ml) for 10 min. The hepatic capsule was removed with forceps. The hepatocytes were released by shaking the liver gently in 100 ml DMEM.
The released cells were filtered through a sterile nylon mesh (70-μm). The hepatocyte suspensions were centrifuged at 50 xg for 3 min. The cell pellet was resuspended in 25 ml DMEM and an equal volume of 90% isotonic polyvinylpyrrolidone-coated silica colloid centrifugation medium (pH 7.4) sold under the registered trademark PERCOLL® by Pharmacia, Inc. of Piscataway, N.J. The resulting cell suspension was centrifuged at about 70 to about 150 xg for 5 min. The pellet was resuspended in 50 ml DMEM and the cell suspensions were combined into one tube followed by centrifugation at 50 xg for 3 min. Hepatocyte viability was determined by trypan blue exclusion. Only those hepatocyte preparations with viability greater than 90% were utilized for further studies.
Hepatocyte suspensions were prepared with DMEM containing 5% fetal calf serum, 1 μM dexamethasone and 4 mg/L insulin. Hepatocyte suspensions were added to the precoated dishes at a density of about 2-3×10^6 cells/60-mm dish. Approximately 1 hr after plating the cells, the medium was aspirated and 3-ml fresh DMEM was added. For transport studies, hepatocytes that had been seeded for 3-5 hr without collagen overlay were defined as 3-hr or short-term cultured hepatocytes.
as §1, §2

[5] = tested on: hepatic cytochrome p450 isozymes; details: Silver et al. 1996; cited from earlier work

CCCC[C@]1(CC)CS(=O)(=O)c2cc(OC)c(OC)cc2[C@@H](c2ccccc2)N1 [264W94, (3R, 5R)-3-butyl-3-ethyl-2,3,4,5-tetrahydro-7,8-dimethoxy-5-phenyl-1,4-benzothiazepine-1,1-dioxide]
share of total radioactivity in cell lysate [1]: 73.0% | cumulative uptake in standard buffer compared to Ca2+-free buffer ([2]; 96-hr cultured hepatocytes): not significantly different | biliary excretion in long-term sandwich-cultured hepatocytes (in words) ([2]; 96-hr sandwich-cultured hepatocytes): lack of biliary excretion | biliary excretion in rats (in words) ([3]; in vivo): negligible biliary excretion | detection in bile in 24 hr ([3]; rats, i.v. [14C]264W94 0.24 μmol/kg): neither 264W94 nor 2169W94 was detected | total administered radioactivity recovered in bile ([3]; rats, oral administration 2.4 μmol/kg, in 8 hr, n=2): 66.4% | cumulative uptake in standard buffer compared to Ca2+-free buffer [4]: similar | cytochrome p450 isozyme primarily involved in the metabolism [5]: CYP3A4
